Data as given in the kinase profiling compilation of Christmann-Franck et al. (2016).

What was measured:
[1] = target: JAK2 JH1 catalytic (human) (UniProt O60674); assay: KINOMEscan competition binding; details: compound 10.0 µM
PLK4 (human) = PLK4 (human) (UniProt O00444); assay: KINOMEscan competition binding; details: compound 10.0 µM
TTK (human) [2] = target: TTK (human) (UniProt P33981); assay: KINOMEscan competition binding; details: for kinase still bound, per cent of control: compound 10.0 µM
Sequence of TTK (human) (P33981 whole entry, looked up): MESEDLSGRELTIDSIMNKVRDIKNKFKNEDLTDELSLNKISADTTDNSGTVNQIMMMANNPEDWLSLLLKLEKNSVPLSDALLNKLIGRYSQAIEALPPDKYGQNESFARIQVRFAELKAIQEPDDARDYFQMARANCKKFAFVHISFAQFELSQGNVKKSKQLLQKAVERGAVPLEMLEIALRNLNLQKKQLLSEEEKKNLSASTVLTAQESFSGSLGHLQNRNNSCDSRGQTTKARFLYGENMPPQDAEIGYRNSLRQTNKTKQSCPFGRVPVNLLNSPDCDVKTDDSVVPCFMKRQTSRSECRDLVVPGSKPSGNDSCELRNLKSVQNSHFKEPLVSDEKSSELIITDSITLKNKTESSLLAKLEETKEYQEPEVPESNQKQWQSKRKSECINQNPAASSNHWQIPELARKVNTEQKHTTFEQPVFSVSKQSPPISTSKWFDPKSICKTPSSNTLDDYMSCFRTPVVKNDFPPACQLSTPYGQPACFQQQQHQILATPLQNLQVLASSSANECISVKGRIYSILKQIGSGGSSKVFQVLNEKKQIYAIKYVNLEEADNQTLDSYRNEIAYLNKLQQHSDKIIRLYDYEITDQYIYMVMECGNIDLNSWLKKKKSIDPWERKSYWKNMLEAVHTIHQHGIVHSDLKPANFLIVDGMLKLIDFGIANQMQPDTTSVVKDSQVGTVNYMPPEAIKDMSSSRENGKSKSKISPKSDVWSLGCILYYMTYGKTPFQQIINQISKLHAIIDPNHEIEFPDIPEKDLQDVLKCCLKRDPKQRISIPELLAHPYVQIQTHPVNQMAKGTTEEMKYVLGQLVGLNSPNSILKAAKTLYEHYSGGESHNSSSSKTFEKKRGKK

GAK (human) = GAK (human) (UniProt O14976); assay: KINOMEscan competition binding; details: compound 10.0 µM
Sequence of GAK (human) (O14976 whole entry, looked up): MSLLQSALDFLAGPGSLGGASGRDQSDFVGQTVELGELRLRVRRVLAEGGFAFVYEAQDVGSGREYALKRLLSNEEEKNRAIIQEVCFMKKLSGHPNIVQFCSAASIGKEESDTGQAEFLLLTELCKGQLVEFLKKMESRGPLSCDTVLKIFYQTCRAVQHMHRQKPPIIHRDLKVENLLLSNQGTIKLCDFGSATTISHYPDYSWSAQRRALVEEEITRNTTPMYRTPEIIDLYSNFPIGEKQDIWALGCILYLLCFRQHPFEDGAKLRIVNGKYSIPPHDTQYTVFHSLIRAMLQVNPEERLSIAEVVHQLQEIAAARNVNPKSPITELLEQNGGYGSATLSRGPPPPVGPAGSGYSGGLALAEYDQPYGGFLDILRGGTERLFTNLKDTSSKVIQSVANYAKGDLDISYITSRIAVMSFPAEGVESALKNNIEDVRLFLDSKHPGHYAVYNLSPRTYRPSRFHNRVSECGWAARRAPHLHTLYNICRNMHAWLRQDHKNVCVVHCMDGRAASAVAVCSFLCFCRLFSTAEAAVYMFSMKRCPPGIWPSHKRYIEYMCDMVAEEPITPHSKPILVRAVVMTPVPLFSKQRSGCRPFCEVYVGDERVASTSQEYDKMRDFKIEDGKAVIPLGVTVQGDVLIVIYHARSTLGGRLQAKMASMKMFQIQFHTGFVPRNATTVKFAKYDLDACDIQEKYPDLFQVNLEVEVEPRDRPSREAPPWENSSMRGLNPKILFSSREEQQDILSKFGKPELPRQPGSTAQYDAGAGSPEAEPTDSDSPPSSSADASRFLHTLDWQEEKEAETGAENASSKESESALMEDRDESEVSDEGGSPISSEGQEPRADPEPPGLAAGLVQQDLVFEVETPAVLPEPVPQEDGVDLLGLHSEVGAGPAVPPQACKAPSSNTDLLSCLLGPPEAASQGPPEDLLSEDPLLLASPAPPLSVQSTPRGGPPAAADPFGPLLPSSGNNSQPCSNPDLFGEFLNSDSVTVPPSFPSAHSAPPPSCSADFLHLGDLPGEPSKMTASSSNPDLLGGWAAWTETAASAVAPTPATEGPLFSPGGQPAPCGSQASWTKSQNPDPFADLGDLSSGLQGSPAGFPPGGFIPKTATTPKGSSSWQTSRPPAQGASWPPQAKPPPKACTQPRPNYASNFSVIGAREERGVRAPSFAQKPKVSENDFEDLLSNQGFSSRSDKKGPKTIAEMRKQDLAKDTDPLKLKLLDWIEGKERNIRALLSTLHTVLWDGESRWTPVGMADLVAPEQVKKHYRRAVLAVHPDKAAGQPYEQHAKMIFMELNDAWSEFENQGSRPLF

PLK1 (human) = PLK1 (human) (UniProt P53350); assay: KINOMEscan competition binding; details: compound 10.0 µM
FRK (human) = FRK (human) (UniProt P42685); assay: SelectScreen, TR FRET
TTK (human) [3] = target: TTK (human) (UniProt P33981); assay: SelectScreen, TR FRET
PTK6 (human) = PTK6 (human) (UniProt Q13882); assay: SelectScreen, TR FRET
CSF1R (human) = CSF1R (human) (UniProt P07333); assay: SelectScreen, TR FRET
DCLK2 (human) = DCLK2 (human) (UniProt Q8N568); assay: SelectScreen, TR FRET
STK17A (human) = STK17A (human) (UniProt Q9UEE5); assay: KINOMEscan competition binding; details: compound 10.0 µM
Sequence of STK17A (human) (Q9UEE5 whole entry, looked up): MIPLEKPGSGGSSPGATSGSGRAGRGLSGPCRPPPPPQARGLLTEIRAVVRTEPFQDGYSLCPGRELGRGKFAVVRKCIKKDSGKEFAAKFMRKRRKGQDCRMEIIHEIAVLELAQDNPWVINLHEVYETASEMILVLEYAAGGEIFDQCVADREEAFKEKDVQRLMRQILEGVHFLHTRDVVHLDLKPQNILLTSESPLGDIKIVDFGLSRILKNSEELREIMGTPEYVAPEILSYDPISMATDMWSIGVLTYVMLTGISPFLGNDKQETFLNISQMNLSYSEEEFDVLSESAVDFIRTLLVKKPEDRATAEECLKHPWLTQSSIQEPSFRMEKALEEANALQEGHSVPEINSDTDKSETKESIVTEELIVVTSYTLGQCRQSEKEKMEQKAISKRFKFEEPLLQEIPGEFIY

DAPK1 (human) = DAPK1 (human) (UniProt P53355); assay: KINOMEscan competition binding; details: compound 10.0 µM
CDK3 (human) = CDK3 (human) (UniProt Q00526); assay: KINOMEscan competition binding; details: compound 10.0 µM
NLK (human) = NLK (human) (UniProt Q9UBE8); assay: KINOMEscan competition binding; details: compound 10.0 µM
PIM1 (human) [4] = target: PIM1 (human) (UniProt P11309); assay: KINOMEscan competition binding; details: compound 10.0 µM
Sequence of PIM1 (human) (P11309 whole entry, looked up): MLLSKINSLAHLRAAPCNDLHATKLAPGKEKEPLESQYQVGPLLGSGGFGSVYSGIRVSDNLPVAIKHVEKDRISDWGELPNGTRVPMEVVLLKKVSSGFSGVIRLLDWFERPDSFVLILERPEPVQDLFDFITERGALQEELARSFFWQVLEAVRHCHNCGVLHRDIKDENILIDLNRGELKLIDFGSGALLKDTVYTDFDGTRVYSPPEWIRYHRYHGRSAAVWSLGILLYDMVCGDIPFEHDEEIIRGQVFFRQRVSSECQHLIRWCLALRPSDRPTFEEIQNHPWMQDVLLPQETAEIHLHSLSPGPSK

BRAF (human) = BRAF (human) (UniProt P15056); assay: KINOMEscan competition binding; details: compound 10.0 µM
CDK5 (human) = CDK5 (human) (UniProt Q00535); assay: KINOMEscan competition binding; details: compound 10.0 µM
HIPK1 (human) [5] = target: HIPK1 (human) (UniProt Q86Z02); assay: KINOMEscan competition binding; details: compound 10.0 µM
Sequence of HIPK1 (human) (Q86Z02 whole entry, looked up): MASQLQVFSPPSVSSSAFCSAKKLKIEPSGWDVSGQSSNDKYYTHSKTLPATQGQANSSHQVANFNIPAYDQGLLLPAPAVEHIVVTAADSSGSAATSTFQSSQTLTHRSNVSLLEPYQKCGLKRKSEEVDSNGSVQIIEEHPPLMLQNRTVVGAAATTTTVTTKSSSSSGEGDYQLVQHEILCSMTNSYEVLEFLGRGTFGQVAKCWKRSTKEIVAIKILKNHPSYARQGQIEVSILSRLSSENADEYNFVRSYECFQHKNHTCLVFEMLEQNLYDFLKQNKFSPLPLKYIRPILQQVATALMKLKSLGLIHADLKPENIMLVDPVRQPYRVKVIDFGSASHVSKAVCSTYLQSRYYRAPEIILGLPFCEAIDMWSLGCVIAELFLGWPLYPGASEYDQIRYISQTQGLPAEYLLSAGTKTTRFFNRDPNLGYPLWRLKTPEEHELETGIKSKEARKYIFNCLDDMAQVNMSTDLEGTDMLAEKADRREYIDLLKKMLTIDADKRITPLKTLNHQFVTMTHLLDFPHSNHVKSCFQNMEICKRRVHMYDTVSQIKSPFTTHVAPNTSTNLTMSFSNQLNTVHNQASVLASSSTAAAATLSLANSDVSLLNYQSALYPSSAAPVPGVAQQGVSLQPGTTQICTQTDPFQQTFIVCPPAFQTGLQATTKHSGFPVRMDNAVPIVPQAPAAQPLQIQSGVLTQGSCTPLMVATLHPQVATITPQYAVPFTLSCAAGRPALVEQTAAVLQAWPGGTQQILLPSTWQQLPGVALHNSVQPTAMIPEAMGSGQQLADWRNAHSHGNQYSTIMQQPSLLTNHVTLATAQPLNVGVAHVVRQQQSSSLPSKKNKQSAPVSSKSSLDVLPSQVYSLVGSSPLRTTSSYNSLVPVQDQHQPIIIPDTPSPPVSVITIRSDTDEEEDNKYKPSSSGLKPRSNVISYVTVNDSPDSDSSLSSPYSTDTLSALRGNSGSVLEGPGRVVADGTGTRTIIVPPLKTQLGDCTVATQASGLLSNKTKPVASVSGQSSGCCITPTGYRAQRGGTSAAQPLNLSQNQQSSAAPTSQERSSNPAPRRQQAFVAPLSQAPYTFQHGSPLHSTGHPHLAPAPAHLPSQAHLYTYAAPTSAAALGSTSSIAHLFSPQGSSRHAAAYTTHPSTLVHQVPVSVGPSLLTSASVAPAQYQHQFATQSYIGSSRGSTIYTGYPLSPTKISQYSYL

PIM3 (human) = PIM3 (human) (UniProt Q86V86); assay: KINOMEscan competition binding; details: compound 10.0 µM
DAPK3 (human) = DAPK3 (human) (UniProt O43293); assay: KINOMEscan competition binding; details: compound 10.0 µM
GSK3A (human) = GSK3A (human) (UniProt P49840); assay: KINOMEscan competition binding; details: compound 10.0 µM
TAOK1 (human) = TAOK1 (human) (UniProt Q7L7X3); assay: KINOMEscan competition binding; details: compound 10.0 µM
TGFBR2 (human) = TGFBR2 (human) (UniProt P37173); assay: KINOMEscan competition binding; details: compound 10.0 µM
STK17B (human) = STK17B (human) (UniProt O94768); assay: KINOMEscan competition binding; details: compound 10.0 µM
ACVR2B (human) = ACVR2B (human) (UniProt Q13705); assay: KINOMEscan competition binding; details: compound 10.0 µM
TAOK3 (human) = TAOK3 (human) (UniProt Q9H2K8); assay: KINOMEscan competition binding; details: compound 10.0 µM
MAPK12 (human) = MAPK12 (human) (UniProt P53778); assay: KINOMEscan competition binding; details: compound 10.0 µM
MYLK4 (human) = MYLK4 (human) (UniProt Q86YV6); assay: KINOMEscan competition binding; details: compound 10.0 µM
DAPK2 (human) = DAPK2 (human) (UniProt Q9UIK4); assay: KINOMEscan competition binding; details: compound 10.0 µM
CDK7 (human) = CDK7 (human) (UniProt P50613); assay: KINOMEscan competition binding; details: compound 10.0 µM
PIM2 (human) [6] = target: PIM2 (human) (UniProt Q9P1W9); assay: KINOMEscan competition binding; details: compound 10.0 µM
Sequence of PIM2 (human) (Q9P1W9 whole entry, looked up): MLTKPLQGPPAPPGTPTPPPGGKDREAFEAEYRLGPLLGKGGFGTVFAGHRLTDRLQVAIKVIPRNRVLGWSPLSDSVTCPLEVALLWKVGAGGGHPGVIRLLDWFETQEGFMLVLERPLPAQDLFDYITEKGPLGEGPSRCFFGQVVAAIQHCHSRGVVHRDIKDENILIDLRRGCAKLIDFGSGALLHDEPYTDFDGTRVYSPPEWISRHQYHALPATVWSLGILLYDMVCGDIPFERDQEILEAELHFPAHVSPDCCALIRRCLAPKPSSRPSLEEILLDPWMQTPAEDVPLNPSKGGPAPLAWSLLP

CDK16 (human) = CDK16 (human) (UniProt Q00536); assay: KINOMEscan competition binding; details: compound 10.0 µM
MAPK15 (human) = MAPK15 (human) (UniProt Q8TD08); assay: KINOMEscan competition binding; details: compound 10.0 µM
PIM1 (human) [7] = target: PIM1 (human) (UniProt P11309); assay: SelectScreen, TR FRET
PIM2 (human) [8] = target: PIM2 (human) (UniProt Q9P1W9); assay: SelectScreen, TR FRET
MAPK10 (human) = MAPK10 (human) (UniProt P53779); assay: KINOMEscan competition binding; details: compound 10.0 µM
CLK1 (human) = CLK1 (human) (UniProt P49759); assay: KINOMEscan competition binding; details: compound 10.0 µM
DYRK1B (human) [9] = target: DYRK1B (human) (UniProt Q9Y463); assay: KINOMEscan competition binding; details: compound 10.0 µM
Sequence of DYRK1B (human) (Q9Y463 whole entry, looked up): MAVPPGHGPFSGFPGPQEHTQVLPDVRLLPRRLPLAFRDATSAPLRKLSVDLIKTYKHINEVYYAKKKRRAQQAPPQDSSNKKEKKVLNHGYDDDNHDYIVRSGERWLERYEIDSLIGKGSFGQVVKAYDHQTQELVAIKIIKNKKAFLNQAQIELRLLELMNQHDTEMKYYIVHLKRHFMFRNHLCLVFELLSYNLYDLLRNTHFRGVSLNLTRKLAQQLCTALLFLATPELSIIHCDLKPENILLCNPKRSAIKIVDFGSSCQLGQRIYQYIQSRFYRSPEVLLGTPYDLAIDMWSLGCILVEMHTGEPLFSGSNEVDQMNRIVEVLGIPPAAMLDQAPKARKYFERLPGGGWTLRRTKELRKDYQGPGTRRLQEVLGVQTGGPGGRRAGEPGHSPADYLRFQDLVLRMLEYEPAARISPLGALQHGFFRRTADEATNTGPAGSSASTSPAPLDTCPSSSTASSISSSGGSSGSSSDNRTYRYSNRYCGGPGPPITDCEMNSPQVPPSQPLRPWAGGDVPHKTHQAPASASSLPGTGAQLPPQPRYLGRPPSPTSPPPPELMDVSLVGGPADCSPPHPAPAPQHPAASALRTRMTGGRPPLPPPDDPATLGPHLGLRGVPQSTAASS

MAP4K2 (human) = MAP4K2 (human) (UniProt Q12851); assay: KINOMEscan competition binding; details: compound 10.0 µM
CLK4 (human) = CLK4 (human) (UniProt Q9HAZ1); assay: KINOMEscan competition binding; details: compound 10.0 µM
RPS6KA4 KD2 (human) = RPS6KA4 KD2 (human) (UniProt O75676); assay: KINOMEscan competition binding; details: compound 10.0 µM
[10] = system: EIF2AK4 KD2 (human), Q9P2K8 [S808G]; assay: KINOMEscan competition binding; details: compound 10.0 µM
RPS6KA5 KD2 (human) = RPS6KA5 KD2 (human) (UniProt O75582); assay: KINOMEscan competition binding; details: compound 10.0 µM
CSNK1G1 (human) = CSNK1G1 (human) (UniProt Q9HCP0); assay: KINOMEscan competition binding; details: compound 10.0 µM
MAPK8 (human) = MAPK8 (human) (UniProt P45983); assay: KINOMEscan competition binding; details: compound 10.0 µM
BMPR1B (human) = BMPR1B (human) (UniProt O00238); assay: KINOMEscan competition binding; details: compound 10.0 µM
CAMKK2 (human) = CAMKK2 (human) (UniProt Q96RR4); assay: KINOMEscan competition binding; details: compound 10.0 µM
PAK2 (human) = PAK2 (human) (UniProt Q13177); assay: KINOMEscan competition binding; details: compound 10.0 µM
AAK1 (human) = AAK1 (human) (UniProt Q2M2I8); assay: KINOMEscan competition binding; details: compound 10.0 µM
CLK2 (human) = CLK2 (human) (UniProt P49760); assay: KINOMEscan competition binding; details: compound 10.0 µM
HIPK2 (human) = HIPK2 (human) (UniProt Q9H2X6); assay: SelectScreen, TR FRET
DYRK1B (human) [11] = target: DYRK1B (human) (UniProt Q9Y463); assay: SelectScreen, TR FRET
HIPK1 (human) [12] = target: HIPK1 (human) (UniProt Q86Z02); assay: SelectScreen, TR FRET
DYRK1A (human) = DYRK1A (human) (UniProt Q13627); assay: SelectScreen, TR FRET
DCLK1 (human) = DCLK1 (human) (UniProt O15075); assay: KINOMEscan competition binding; details: compound 10.0 µM
CAMK2D (human) = CAMK2D (human) (UniProt Q13557); assay: KINOMEscan competition binding; details: compound 10.0 µM
TNK1 (human) = TNK1 (human) (UniProt Q13470); assay: KINOMEscan competition binding; details: compound 10.0 µM
RPS6KA2 KD2 (human) = RPS6KA2 KD2 (human) (UniProt Q15349); assay: KINOMEscan competition binding; details: compound 10.0 µM
STK33 (human) = STK33 (human) (UniProt Q9BYT3); assay: KINOMEscan competition binding; details: compound 10.0 µM

With `CN1C(=O)CCN(C2CCCC2)c2nc(Nc3ccc(N4CCC(O)CC4)cn3)ncc21` the kinase still bound, per cent of control [1] was 6.4%, the kinase still bound, per cent of control (PLK4 (human)) was 16% and the Kd (TTK (human) [2]) was 130 nM. For the same molecule, the kinase still bound, per cent of control (TTK (human) [2]) was 2.2%, the kinase still bound, per cent of control (GAK (human)) was 23% and the kinase still bound, per cent of control (PLK1 (human)) was 24%. For the same molecule, the IC50 (FRK (human)) was 264 nM, the IC50 (TTK (human) [3]) was 891 nM and the IC50 (PTK6 (human)) was 47 nM. The IC50 (CSF1R (human)) was 428 nM and the IC50 (DCLK2 (human)) was 3200 nM.
Molecule `N=C1NC(=O)/C(=C/c2ccc(-c3ccc(S(N)(=O)=O)cc3)o2)S1` has a kinase still bound, per cent of control (STK17A (human)) of 1.1%, a kinase still bound, per cent of control (DAPK1 (human)) of 3.5% and a kinase still bound, per cent of control (PLK4 (human)) of 15%. For the same molecule, the kinase still bound, per cent of control (CDK3 (human)) was 17%, the kinase still bound, per cent of control (NLK (human)) was 18% and the kinase still bound, per cent of control (PIM1 (human) [4]) was 3%. The kinase still bound, per cent of control (BRAF (human)) was 24%, the kinase still bound, per cent of control (CDK5 (human)) was 9.6% and the kinase still bound, per cent of control (HIPK1 (human) [5]) was 0.65%. It also gave a kinase still bound, per cent of control (PIM3 (human)) of 4.8%, a kinase still bound, per cent of control (DAPK3 (human)) of 24% and a kinase still bound, per cent of control (TTK (human) [2]) of 24%. The kinase still bound, per cent of control (GSK3A (human)) was 9.9%, the kinase still bound, per cent of control (TAOK1 (human)) was 2.4% and the kinase still bound, per cent of control (TGFBR2 (human)) was 22%. The kinase still bound, per cent of control (STK17B (human)) was 6%, the kinase still bound, per cent of control (ACVR2B (human)) was 30% and the kinase still bound, per cent of control (TAOK3 (human)) was 29%. It also gave a kinase still bound, per cent of control (MAPK12 (human)) of 12%, a kinase still bound, per cent of control (MYLK4 (human)) of 6.7% and a kinase still bound, per cent of control (DAPK2 (human)) of 16%. For the same molecule, the kinase still bound, per cent of control (CDK7 (human)) was 23%, the kinase still bound, per cent of control (PIM2 (human) [6]) was 1.8% and the kinase still bound, per cent of control (CDK16 (human)) was 1.2%. It also gave a kinase still bound, per cent of control (MAPK15 (human)) of 5.4%, an IC50 (PIM1 (human) [7]) of 573 nM and an IC50 (PIM2 (human) [8]) of 501 nM.
`N=C1NC(=O)/C(=C/c2c[nH]c(=O)c(-c3ccc4cc[nH]c4c3)c2)S1` was tested, and the kinase still bound, per cent of control (MAPK10 (human)) was 29%, the kinase still bound, per cent of control (CLK1 (human)) was 24% and the kinase still bound, per cent of control (DYRK1B (human) [9]) was 8.6%. It also gave a kinase still bound, per cent of control (STK17A (human)) of 5%, a kinase still bound, per cent of control (MAP4K2 (human)) of 15% and a kinase still bound, per cent of control (CLK4 (human)) of 30%. For the same molecule, the kinase still bound, per cent of control (DAPK1 (human)) was 9.7%, the kinase still bound, per cent of control (PIM1 (human) [4]) was 16% and the kinase still bound, per cent of control (HIPK1 (human) [5]) was 4.2%. For the same molecule, the kinase still bound, per cent of control (PIM3 (human)) was 12%, the kinase still bound, per cent of control (DAPK3 (human)) was 8.6% and the kinase still bound, per cent of control (RPS6KA4 KD2 (human)) was 8.8%. For the same molecule, the kinase still bound, per cent of control [10] was 21%, the kinase still bound, per cent of control (RPS6KA5 KD2 (human)) was 23% and the kinase still bound, per cent of control (STK17B (human)) was 13%. The kinase still bound, per cent of control (CSNK1G1 (human)) was 24%, the kinase still bound, per cent of control (MAPK8 (human)) was 28% and the kinase still bound, per cent of control (BMPR1B (human)) was 6.2%. The kinase still bound, per cent of control (CAMKK2 (human)) was 29%, the kinase still bound, per cent of control (DAPK2 (human)) was 4% and the kinase still bound, per cent of control (PIM2 (human) [6]) was 15%. It also gave a kinase still bound, per cent of control (PAK2 (human)) of 34%, a kinase still bound, per cent of control (AAK1 (human)) of 20% and a kinase still bound, per cent of control (CLK2 (human)) of 4.8%. For the same molecule, the IC50 (HIPK2 (human)) was 3890 nM, the IC50 (DYRK1B (human) [11]) was 62 nM and the IC50 (HIPK1 (human) [12]) was 3810 nM. For the same molecule, the IC50 (DYRK1A (human)) was 19 nM.
In the case of `CCOc1cc(N2CCC(O)CC2)ccc1Nc1ncc2c(n1)N(C1CCCC1)CCC(=O)N2CC`, the kinase still bound, per cent of control (DCLK1 (human)) is reported as 27%, the kinase still bound, per cent of control (CAMK2D (human)) is reported as 27% and the Kd (TTK (human) [2]) is reported as 106 nM. For the same molecule, the kinase still bound, per cent of control (TTK (human) [2]) was 3.9%, the kinase still bound, per cent of control (GAK (human)) was 8.2% and the kinase still bound, per cent of control (TNK1 (human)) was 33%. The kinase still bound, per cent of control (RPS6KA2 KD2 (human)) was 13%, the kinase still bound, per cent of control (STK33 (human)) was 22% and the kinase still bound, per cent of control (PLK1 (human)) was 1.2%. It also gave an IC50 (TTK (human) [3]) of 1010 nM and an IC50 (DCLK2 (human)) of 556 nM.
